Measured values from patent US20040214799A1, “Cancerous metastasis inhibitors containing carbacyclic phosphatidic acid derivatives” (priority 2001, published 2004).
Values joined by “and” are separate entries in the source; they are usually repeats but may differ in a detail not shown here. Equal entries are not always repeated.

Assays:
[1] = test system: Mouse malignant melanoma B16-F0; assay: B16 melanoma hematogenous lung metastasis model; type: in vivo; settings: for invasion of lymphocytes into metastatic lesions observed in cases: animals with metastatic lesions; for Metastatic nodules, Abdominal cavity Adipose tissue / Metastatic nodules, Abdominal cavity Adrenal gland / Metastatic nodules, Abdominal cavity Diaphragm / Metastatic nodules, Abdominal cavity Kidney / Metastatic nodules, Abdominal cavity Ovary / Metastatic nodules, Abdominal cavity Spleen / Metastatic nodules, Thoracic cavity / Metastatic nodules, Tissue around glandual clitoris: autopsy day 14, individual animals; for Number of lung tumor nodules, Range (mininum-maximum) / Number of mice having lung tumor nodules: day 14, N 6; for Number of lung tumor nodules: day 14, mean ± S.D.; for Number of lung tumor nodules / Number of mice having metastatic lesions: N 6; for Number of mice having metastatic lesions / Findings: Invasion of lymphocytes into melanoma metastatic lesion: lung histopathology; for Findings: Invasion of lymphocytes into melanoma metastatic lesion: individual animals; for Number of metastatic lesions per section, Large size: major diameter 0.65 mm ≦ and <1.3 mm; for Number of metastatic lesions per section, Large size / Number of metastatic lesions per section, Small size / Number of metastatic lesions per section, Total: mean ± S.D.; for Number of metastatic lesions per section, Small size: major diameter <0.65 mm, left lobe and posterior lobe; for Metastatic nodules, Abdominal cavity Adipose tissue: key: −: Absent; +: Present; for Metastatic nodules, Abdominal cavity Adrenal gland: key: −: Absent; +: Present; for Metastatic nodules, Abdominal cavity Diaphragm: key: −: Absent; +: Present; for Metastatic nodules, Abdominal cavity Kidney: key: −: Absent; +: Present; for Metastatic nodules, Abdominal cavity Ovary: key: −: Absent; +: Present; for Metastatic nodules, Abdominal cavity Spleen: key: −: Absent; +: Present; for Metastatic nodules, Thoracic cavity: key: −: Absent; +: Present; for Metastatic nodules, Tissue around glandual clitoris: key: −: Absent; +: Present
Description: cPA-19 and cPA-20 were used as test substances. 0.1 w/v % BSA/PBS which was prepared by dissolving Albumin, Bovine [essentially Fatty Acid Free] (BSA, Lot No. 89H7604, Sigma chemical company) in Ca^2+ and Mg^2+ free PBS (pH 7.2), was used as a medium After preparation, the solution was sterilized by filtration using a filter (0.22 μm, Millipore). Preparation was performed when used. cPA-5 was used as a positive control substance.
A medium was added in a volume required for a test substance or a positive control substance. Dissolution was performed by ultrasonication, thereby preparing a 0.16 mg/mL solution. The 0.16 mg/mL solution containing a test substance was diluted with a medium, thereby preparing 0.08 and 0.02 mg/mL solutions. All mixtures were prepared when used.
Mice were purchased from CHARLES RIVER JAPAN. INC. The line employed herein was C57BL/6NCrj (sexuality: female). The number of animals kept in stock was 60, and the age of these animals when kept in stock was 4 weeks. […] The environmental conditions for the test system were as follows:
Mouse malignant melanoma B16-F0 was used as a tumor cell. The cell was purchased from Dainippon Pharmaceutical Co., Ltd.
Dulbecco's Modified Eagle's Media containing 10% feral bovine serum and kanamycin were used for culture. […] A medium was added to stop the action of trypsin while pipetting, thereby preparing a cell suspension. The suspension was diluted by one-tenth with a medium for culturing, followed by subculturing until it reached a volume sufficient for grafting.
A cell suspension was prepared by the same technique as the subculture method. Specifically, the cells were washed with a Ca^2+ and Mg^2+ free phosphate buffer [PBS(−)], and then harvested. The harvested cells were suspended in a 10 mL of PBS(−), thereby preparing a cell suspension. The number of cells in the cell suspension was measured to obtain the total cell number. 50 μL of the cell suspension, 100 μL of 0.4% trypan blue liquid and 100 μL of PBS(−) were mixed, and then viable count was measured. The survival rate of the cells was calculated from the viable count and total cell number.
Based on the body weight on the day of the administration of the test substance, mice were grouped into 8 test groups according to the stratified continuous randomization method as shown in Table 2 below.
The mixture was administered via the caudal vein. The number of grafted cells was 5×10^5 cells/body. The dose of the test substance was 0.001, 0.004 or 0.008 mg/body, and the dose of the positive control substance was 0.008 mg/body.
On day 14 after the administration of the test substance, blood was collected from the posterior portion of the abdominal vena cava under isoflurane anesthesia. After the mice were sacrificed by blood-letting, the presence or absence of intrapleural and intraperitoneal metastatic nodules was confirmed. Lungs were extracted, and then fixed with a 10% neutral buffered formalin solution. The number of nodules resulting from lung metastasis was measured under a stereoscopic microscope (magnification: 10 times).
After the measurement of the number of nodules resulting from lung metastasis, samples were paraffin-embedded, and then thin sections were prepared. Hematoxylin eosinic-stained samples were prepared from these sections. The number of metastatic lesions in the certain portions of the left lobe and the posterior lobe was measured, and then the lesions were sorted by size. On the basis of the diameter (0.65 mm) of an object lens (×40), metastatic lesions with major diameters of less than 0.65 mm were classified as having a small size, and those with major diameters of between 0.65 mm or more and less than 1.30 mm were classified as having a large size. Furthermore, the degree of invasion of lymphocytes into metastatic lesions was confirmed qualitatively.
The representative value of each test group was denoted as mean±standard deviation (mean±S.D.). Differences in mean values were examined as follows.

MM1 cells = assay: Effect on the proliferation of MM1 cells; type: cell-based, rat; settings: 12.5 μM or 25 μM cPA, 10% FBS, 24 hours and 72 hours
Description: 12.5 μM and 25 μM cPA were added to media containing 10% FBS, and then the cells were cultured under conditions of 37° C. and 5% CO2 for 24 hours and 72 hours. The number of the MM1 cells was counted using a hemocytometer.

[2] = 0.001 mg/body i.v., autopsy, 6 mice
[3] = 0.004 mg/body i.v., autopsy, 6 mice
[4] = 0.008 mg/body i.v., autopsy, 6 mice

carba-Ole-cPA [cPA-19]
invasion of lymphocytes into metastatic lesions observed in cases ([1]; 0.001 mg/body i.v.): 1 out of 6
Metastatic nodules, Abdominal cavity Adipose tissue ([1]; 0.001 mg/body i.v.): + and − (5×)
Metastatic nodules, Abdominal cavity Adrenal gland ([1]; 0.001 mg/body i.v.): + and − (5×)
Metastatic nodules, Abdominal cavity Diaphragm ([1]; 0.001 mg/body i.v.): −
Metastatic nodules, Abdominal cavity Kidney ([1]; 0.001 mg/body i.v.): + (2×) and − (4×)
Metastatic nodules, Abdominal cavity Ovary ([1]; 0.001 mg/body i.v.): + (2×) and − (4×)
Metastatic nodules, Abdominal cavity Spleen ([1]; 0.001 mg/body i.v.): − (5×) and +
Metastatic nodules, Thoracic cavity ([1]; 0.001 mg/body i.v.): − (5×) and +
Metastatic nodules, Tissue around glandual clitoris ([1]; 0.001 mg/body i.v.): −
cases with metastatic nodules in adipose tissue [1, 2]: 1 case
cases with metastatic nodules in the adrenal gland [1, 2]: 1 case
cases with metastatic nodules in the kidney [1, 2]: 2 cases
cases with metastatic nodules in the ovary [1, 2]: 2 cases
cases with metastatic nodules in the spleen [1, 2]: 1 case
cases with metastatic nodules in the thoracic cavity [1, 2]: 1 case
Number of lung tumor nodules, Range (mininum-maximum) ([1]; 0.001 mg/body i.v.): 37-66
Number of mice having lung tumor nodules ([1]; 0.001 mg/body i.v.): 6
Number of lung tumor nodules ([1]; 0.001 mg/body i.v.): 54 ± 12
Number of mice having metastatic lesions ([1]; 0.001 mg/body i.v.): 6
Findings: Invasion of lymphocytes into melanoma metastatic lesion ([1]; 0.001 mg/body i.v.): − (5×) and +
Number of metastatic lesions per section, Large size ([1]; 0.001 mg/body i.v.): 0.7 ± 0.8
Number of metastatic lesions per section, Small size ([1]; 0.001 mg/body i.v.): 3.0 ± 1.3
Number of metastatic lesions per section, Total ([1]; 0.001 mg/body i.v.): 3.7 ± 1.8
number of metastatic nodules of B16-F0 in the lungs versus medium group (in words) ([1]; 0.004 mg/body i.v.): significant decrease in the number of metastatic nodules
invasion of lymphocytes into metastatic lesions observed in cases ([1]; 0.004 mg/body i.v.): no invasions were observed in 2 cases
Metastatic nodules, Abdominal cavity Adipose tissue ([1]; 0.004 mg/body i.v.): − (5×) and +
Metastatic nodules, Abdominal cavity Adrenal gland ([1]; 0.004 mg/body i.v.): − (5×) and +
Metastatic nodules, Abdominal cavity Diaphragm ([1]; 0.004 mg/body i.v.): −
Metastatic nodules, Abdominal cavity Kidney ([1]; 0.004 mg/body i.v.): −
Metastatic nodules, Abdominal cavity Ovary ([1]; 0.004 mg/body i.v.): −
Metastatic nodules, Abdominal cavity Spleen ([1]; 0.004 mg/body i.v.): + and − (5×)
Metastatic nodules, Thoracic cavity ([1]; 0.004 mg/body i.v.): −
Metastatic nodules, Tissue around glandual clitoris ([1]; 0.004 mg/body i.v.): −
cases with metastatic nodules in adipose tissue [1, 3]: 1 case
cases with metastatic nodules in the adrenal gland [1, 3]: 1 case
cases with metastatic nodules in the spleen [1, 3]: 1 case
metastatic nodules in the thoracic cavity [1, 3]: no metastatic nodules were observed
Number of lung tumor nodules, Range (mininum-maximum) ([1]; 0.004 mg/body i.v.): 2-6
Number of mice having lung tumor nodules ([1]; 0.004 mg/body i.v.): 6
Number of lung tumor nodules ([1]; 0.004 mg/body i.v.): 4 ± 2
Number of mice having metastatic lesions ([1]; 0.004 mg/body i.v.): 2 &
Findings: Invasion of lymphocytes into melanoma metastatic lesion ([1]; 0.004 mg/body i.v.): −
Number of metastatic lesions per section, Large size ([1]; 0.004 mg/body i.v.): 0 ± 0!!
Number of metastatic lesions per section, Small size ([1]; 0.004 mg/body i.v.): 0.3 ± 0.5
Number of metastatic lesions per section, Total ([1]; 0.004 mg/body i.v.): 0.3 ± 0.5!
metastasis / number of metastatic nodules in the lungs versus medium group (in words) ([1]; 0.008 mg/body i.v.): almost completely suppressed metastasis
Metastatic nodules, Abdominal cavity Adipose tissue ([1]; 0.008 mg/body i.v.): −
Metastatic nodules, Abdominal cavity Adrenal gland ([1]; 0.008 mg/body i.v.): −
Metastatic nodules, Abdominal cavity Diaphragm ([1]; 0.008 mg/body i.v.): −
Metastatic nodules, Abdominal cavity Kidney ([1]; 0.008 mg/body i.v.): −
Metastatic nodules, Abdominal cavity Ovary ([1]; 0.008 mg/body i.v.): −
Metastatic nodules, Abdominal cavity Spleen ([1]; 0.008 mg/body i.v.): − (5×) and +
Metastatic nodules, Thoracic cavity ([1]; 0.008 mg/body i.v.): −
Metastatic nodules, Tissue around glandual clitoris ([1]; 0.008 mg/body i.v.): −
cases with metastatic nodules in the spleen [1, 4]: 1 case
metastatic nodules in the thoracic cavity [1, 4]: no metastatic nodules were observed
Number of lung tumor nodules, Range (mininum-maximum) ([1]; 0.008 mg/body i.v.): 0
Number of mice having lung tumor nodules ([1]; 0.008 mg/body i.v.): 0 &&
Number of lung tumor nodules ([1]; 0.008 mg/body i.v.): 0 ± 0
Number of mice having metastatic lesions ([1]; 0.008 mg/body i.v.): 0 &&
Number of metastatic lesions per section, Large size ([1]; 0.008 mg/body i.v.): 0 ± 0!!
Number of metastatic lesions per section, Small size ([1]; 0.008 mg/body i.v.): 0 ± 0!
Number of metastatic lesions per section, Total ([1]; 0.008 mg/body i.v.): 0 ± 0!!
number of mice having intrapleural or intraperitoneal metastatic nodules, dose dependence (in words) ([1]; 0.001, 0.004 and 0.008 mg/body i.v.): decreased as the dose increased
action of suppressing the lung metastasis of B16-F0 compared with cPA-5 ([1]; 0.004 and 0.008 mg/body i.v.): stronger than that of cPA-5
effect on MM1 cell proliferation (in words) (MM1 cells): showed proliferation suppressing activity
